Measurements from patent US20080145313A1, “Compositions and Methods for the Treatment and Prevention of Neoplastic Disorders” (Genesis Research & Development Corporation Limited, priority 2006, published 2008).

Columns and labels:
Assay type in all cases: cell-based, human
[1] = test system: YBX1 (p47) and p37; experiment: YBX1 protein level by Western blotting in A549 cells; conditions: 10 nM siRNA; 24 h post-transfection; compared with control siRNA
Procedure: Cell lysates were prepared from A549 cells 24 h post-transfection with 10 nM YBX1-specific siRNA (SEQ ID NO: 4982 (DNA), and SEQ ID NO: 5277 (RNA) was labeled 94; SEQ ID NO: 4983 (DNA), and SEQ ID NO: 5278 (RNA) was labeled 95) or control siRNA (SEQ ID NO: 4804 (DNA), and SEQ ID NO: 5301 (RNA); labeled 81). Following Western blotting onto Immobilon-P PVDF filer (Millipore, Bedford Mass.), membranes were probed with a goat anti-human polyclonal antibody specific for YBX1 (AbCam plc, Cambridge, UK), at a concentration of […]. HRP-conjugated donkey anti-goat IgG ([…]; Santa Cruz) was used as a secondary antibody, and signal was detected with an ECL Plus Western blotting Detection System (GE Healthcare, UK) using a Typhoon Scanner (Molecular Dynamics, GE Healthcare, UK).

[2] = test system: SK-Mel-5 cells; experiment: Growth inhibition of siRNA-transfected SK-Mel-5 cells, SYBR Green I DNA content; conditions: 10 nM siRNA; standardized against control siRNA
Procedure: A549 cells (human lung cancer cell line; ATCC No. CCL-185), SK-MeI-5 cells (human melanoma cell line; ATCC No. HTB-70), MCF-7 cells (human adenocarcinoma cell line; ATCC No. HTB-22), HCT-116 cells (colorectal carcinoma; ATCC CCL-247) and HCT-116 p53 null cells (derived from ATCC No. CCL-247; Bunz et al., Science 282:1497-1501, 1998) were cultured in RPMI 1640 medium with 10% v/v heat-inactivated fetal calf serum (FCS). Cells were seeded at a density of 5×10^4 cells/cm^2 in multi-well tissue culture plates. Sequences of Stealth™ siRNA duplexes (Invitrogen) targeting human ribonucleotide reductase subunit 1 (SEQ ID NO: 22) and subunit 2 (SEQ ID NO; 38) are given in SEQ ID NO: 4830-4832 (DNA), and SEQ ID NO: 5136-5138 (RNA) for RRM1, and SEQ ID NO: 5306-5308 (DNA), and SEQ ID NO: 5303-5305 (RNA) for RRM2. siRNAs were transfected at different concentrations into cells using Lipofectamine™ RNAiMAX transfection reagent (Invitrogen). Non-specific siRNA (SEQ ID NO: 4804 and 4805 (DNA), and SEQ ID NO: 5301 and 5302 (RNA)) were used as controls. The cellular DNA content was measured using a SYBR Green I-based fluorometric assay at 24, 48, 72 and 96 hours after transfection (120 hours for the MCF-7 cells), as follows. At the indicated time points following reverse transfection, cells were harvested and frozen at −80° C. overnight. Cells were thawed and cell lysis buffer (phosphate-buffered saline (PBS) containing 1% Triton X-100, pH 7) and SYBR Green I (1:10^5 V/V; Invitrogen) was added to the wells and incubated overnight in the dark at 4° C.
(§1) The following day, cell lysates were mixed thoroughly, and DNA fluorescence was measured with a Wallac Victor^2 plate reader (Turku, Finland) set at an excitation frequency of 485 nm and measuring emission at 535 nm.
siRNA-mediated inhibition of cancer cell growth using siRNA targeting the YBX1 gene (SEQ ID NO: 92) was determined as follows. SK-MeI-5 cells were cultured in RPMI 1640 medium with 10% v/v heat-inactivated fetal calf serum. Cells were cultured as described above and reverse transfected with 0.1, 1.0, 10 and 40 nM (final concentration) of a pool of YBX1-targeting siRNAs (SEQ ID NO: 4982 and 4983 (DNA), and SEQ ID NO: 5277 and 5278 (RNA); referred to as 994 and 995 in FIG. 19) or a non-specific control (SEQ ID NO: 4804 (DNA), and SEQ ID NO: 5301 (RNA); referred to as Stealth 81 ctrl in FIG. 19), and cell growth determined after 120 h by measuring DNA fluorescence with a Wallac Victor^2 plate reader (Turku, Finland) set at an excitation frequency of 485 nm and measuring emission at 535 nm. Growth inhibition by the siRNA pool was standardized against the inhibition obtained with the control siRNAs.
siRNA-mediated RNAi was also determined on a panel of different cell lines. A549, SK-MeI-5, wt HCT-116, HCT-116−/−p53 and MCF-7 cells were transfected with 10 nM siRNAs targeting YBX-1 and growth inhibition determined as described above. The YBX1 siRNAs are given in SEQ ID NO: 4981 to 4985 (DNA) and SEQ ID NO: 5276-5280 (RNA). A non-specific siRNA (SEQ ID NO: 4804 (DNA) and SEQ ID NO: 5301 (RNA)) was used as control. Growth inhibition by the siRNAs, given in Table 14, was standardized against the inhibition obtained with the control siRNA.

[3] = test system: MCF-7 cells; experiment: Growth inhibition of siRNA-transfected MCF-7 cells, SYBR Green I DNA content; conditions: 10 nM siRNA; standardized against control siRNA
Procedure: A549 cells (human lung cancer cell line; ATCC No. CCL-185), SK-MeI-5 cells (human melanoma cell line; ATCC No. HTB-70), MCF-7 cells (human adenocarcinoma cell line; ATCC No. HTB-22), HCT-116 cells (colorectal carcinoma; ATCC CCL-247) and HCT-116 p53 null cells (derived from ATCC No. CCL-247; Bunz et al., Science 282:1497-1501, 1998) were cultured in RPMI 1640 medium with 10% v/v heat-inactivated fetal calf serum (FCS). Cells were seeded at a density of 5×10^4 cells/cm^2 in multi-well tissue culture plates. […] The cellular DNA content was measured using a SYBR Green I-based fluorometric assay at 24, 48, 72 and 96 hours after transfection (120 hours for the MCF-7 cells), as follows. […]
as §1
siRNA-mediated RNAi was also determined on a panel of different cell lines. A549, SK-MeI-5, wt HCT-116, HCT-116−/−p53 and MCF-7 cells were transfected with 10 nM siRNAs targeting YBX-1 and growth inhibition determined as described above. […]

## SEQ ID NO: 4982: siRNA targeting YBX1 (chain 1 TTTGCTGGTAATTGCGTGGAGGACC; chain 2 UUUGCUGGUAAUUGCGUGGAGGACC; chemistry not given here; one strand in two spellings)
[1]
  YBX1 (p47) and p37 protein levels: reduction in YBX1 (p47) and p37 protein levels
[2]
  growth inhibition, SK-Mel-5 cells: +++ (At least 70% inhibition)
[3]
  growth inhibition, MCF7 cells: ++ (At least 50% inhibition)

## SEQ ID NO: 4983: siRNA targeting YBX1 (chain 1 TACTGTGGTCGACGCCCATAGGGTC; chain 2 UACUGUGGUCGACGCCCAUAGGGUC; chemistry not given here; one strand in two spellings)
[1]
  YBX1 (p47) and p37 protein levels: reduction in YBX1 (p47) and p37 protein levels
[2]
  growth inhibition, SK-Mel-5 cells: ++ (At least 50% inhibition)

## SEQ ID NO: 4984: siRNA targeting YBX1 (chain 1 CAAGGTAGACCAGTGAGGCAGAATA; chain 2 CAAGGUAGACCAGUGAGGCAGAAUA; chemistry not given here; one strand in two spellings)
[2]
  growth inhibition, SK-Mel-5 cells: +++ (At least 70% inhibition)

## SEQ ID NO: 4985: siRNA targeting YBX1 (chain 1 CAGCCTAGAGAGGACGGCAATGAAG; chain 2 CAGCCUAGAGAGGACGGCAAUGAAG; chemistry not given here; one strand in two spellings)
[2]
  growth inhibition, SK-Mel-5 cells: ++ (At least 50% inhibition)
